# Experimental data: US20260138990A1, “TRICYCLIC FUSED IMIDAZOLE COMPOUNDS AS CD38 MODULATORS AND USES THEREOF” (AEOVIAN PHARMACEUTICALS, INC., priority 2023, published 2026)
# Counter-ions that a name gives are not always drawn.
# Key:
# [1] = target: T1, mouse CD38 (Mus musculus, UniProt P56528); assay: NAD+ cyclase activity assay with mouse recombinant CD38 protein (ε-NAD fluorescence); assay type: biochemical; conditions: 0.6 nM mouse CD38, substrate ε-NAD, 30 min preincubation, fluorescence 300/410 nm
# T1 construct: purchased Bio-Techne GmbH 4947-AC
# T1 sequence (P56528 1-304): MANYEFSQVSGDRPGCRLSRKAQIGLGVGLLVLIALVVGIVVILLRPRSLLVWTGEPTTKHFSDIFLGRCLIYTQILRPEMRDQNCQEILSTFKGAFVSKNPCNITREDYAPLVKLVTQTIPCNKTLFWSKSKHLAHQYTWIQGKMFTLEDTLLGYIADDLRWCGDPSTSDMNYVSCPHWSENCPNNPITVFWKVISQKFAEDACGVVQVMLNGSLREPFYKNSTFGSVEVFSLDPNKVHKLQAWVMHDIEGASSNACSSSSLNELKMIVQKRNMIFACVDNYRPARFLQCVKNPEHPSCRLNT
# Experimental: (§1) Example 4: NAD^+ Cydase Activity Assay with Human or Mouse Recombinant CD38 Protein
# (§2) The following assay was used to determine the ability of compounds of the invention to inhibit the hydrolysis of NAD^+ by the human or mouse enzyme, CD38.
# (§3) Reaction buffer: 40 mM HEPES/NaOH pH 7.5, 250 mM sucrose, 0.01% Tween
# (§4) Final concentrations: 0.6 nM mouse CD38 (4947-AC, Bio-Techne GmbH) 1.9 nM human CD38 (AVI2404, Bio-Techne GmbH)
# (§5) Substrate: […] Nicotinamide 1,N6-ethenoadenine dinucleotide (&-NAD)
# (§6) Read-out: Fluorescence intensity (extinction 300 nm/emission 410 nm)
# (§7) Required reaction buffer, required CD38 concentration in reaction buffer and required e-NAD concentration in reaction buffer were prepared. Thereafter, 8 μL of CD38 in reaction buffer was added to High Control and compound concentration wells in 384 well plate (Corning #4514, 384 well, nonbinding surface, low volume, round bottom) and 8 μL of reaction buffer to Low Control. Compound dilutions were transferred via pintool technology that transfers 42.5 nL compound dilutions (12-point dose-response with factor three dilutions in 100% DMSO) well-to-well. Plate was subsequently shaken for 15 s at 1450 rpm and sealed for incubation for 30 min at room temperature. Thereafter, 2 μL of e-NAD in reaction buffer were added with Integra Voyager. After shaking for 15 s at 1450 rpm, plate was sealed, and assay signal were measured continuously with PHERAstar® fluorescence intensity module (extinction 300 nm/emission 410 nm).
# (§8) Dose-response curves were constructed using twelve-pointfactor three dilutions in triplicates per plate. High control (full enzyme activity) was set to assay signal of CD38 and e-NAD in presence of vehicle (DMSO) and Low control (full enzyme inhibition) was set to assay signal of e-NAD and vehicle (DMSO) in absence of CD38. For data analysis, fluorescent signal of traces corresponding to each compound concentration and High and Low control were monitored over time. Each run, High Control (full enzyme activity) was fitted to Linear equation via GraphPad Prism to determine CD38 activity from the slope and determine the time interval of linear phase of reaction to account for minor fluctuations. Thereafter, slopes of all compound concentrations were determined via fitting to same linear equation (GraphPad Prism) over the same time interval as determined for High control. […] Unless otherwise stated, fitting of curves were fixed to 100%-inhibition and unlocked for 0%-inhibition.
# [2] = target: T2, human CD38 (Homo sapiens, UniProt P28907); assay: NAD+ cyclase activity assay with human recombinant CD38 protein (ε-NAD fluorescence); assay type: biochemical; conditions: 1.9 nM human CD38, substrate ε-NAD, 30 min preincubation, fluorescence 300/410 nm
# T2 construct: purchased Bio-Techne GmbH AVI2404
# T2 sequence (P28907 1-300): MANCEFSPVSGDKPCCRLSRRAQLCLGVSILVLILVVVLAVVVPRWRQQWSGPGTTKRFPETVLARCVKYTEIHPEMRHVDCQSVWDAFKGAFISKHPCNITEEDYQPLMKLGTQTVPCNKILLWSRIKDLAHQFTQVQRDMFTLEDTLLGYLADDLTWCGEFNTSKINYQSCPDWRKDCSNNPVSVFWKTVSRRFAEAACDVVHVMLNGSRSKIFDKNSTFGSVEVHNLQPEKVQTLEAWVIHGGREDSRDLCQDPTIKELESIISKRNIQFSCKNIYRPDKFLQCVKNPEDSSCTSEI
# Experimental: as §1, §2, §3, §4, §5, §6, §7, §8
IC50 [1] [nM],IC50 [2] [nM],Structure (SMILES)
1 to 10,< 30,"O=C(N[C@H]1CCc2ccccc21)c1ccc2c(c1)-c1cncn1CCO2 [Compound 6A, (S)—N-(2,3-Dihydro-1H-inden-1-yl)-5,6-dihydrobenzo[f]imidazo[1,5-d][1,4]oxazepine-10-carboxamide]"
1 to 10,< 30,"O=C(Nc1ccc2scnc2c1)c1ccc2c(c1)-c1cncn1CCO2 [Compound 7A, N-(Benzo[d]thiazol-5-yl)-5,6-dihydrobenzo[f]imidazo[1,5-d][1,4]oxazepine-10-carboxamide]"
1 to 10,< 30,"O=C(Nc1ccc2c(c1)OCCO2)c1ccc2c(c1)-c1cncn1CCO2 [Compound 8A, N-(2,3-Dihydrobenzo[b][1,4]dioxin-6-yl)-5,6-dihydrobenzo[f]imidazo[1,5-d][1,4]oxazepine-10-carboxamide]"
1 to 10,< 30,"O=C(Nc1ccc2c(c1)CCO2)c1ccc2c(c1)-c1cncn1CCO2 [Compound 9A, N-(2,3-Dihydrobenzofuran-5-yl)-5,6-dihydrobenzo[f]imidazo[1,5-d][1,4]oxazepine-10-carboxamide]"
1 to 10,< 30,"O=C(Nc1ccc(C(F)(F)F)nc1)c1ccc2c(c1)-c1cncn1CCO2 [Compound 10A, N-(6-(Trifluoromethyl)pyridin-3-yl)-5,6-dihydrobenzo[f]imidazo[1,5-d][1,4]oxazepine-10-carboxamide]"
> 100,> 1000,"COCCO[C@H]1CC[C@H](NC(=O)c2ccc3[nH]c(=O)c4cncn4c3c2)CC1 [Compound 11A, N-((1r,4r)-4-(2-Methoxyethoxy)cyclohexyl)-4-oxo-4,5-dihydroimidazo[1,5-a]quinoxaline-8-carboxamide]"
> 100,> 1000,"O=C(N[C@@H]1CCS(=O)(=O)C1)c1ccc2[nH]c(=O)c3cncn3c2c1 [Compound 12A, (R)—N-(1,1-Dioxidotetrahydrothiophen-3-yl)-4-oxo-4,5-dihydroimidazo[1,5-a]quinoxaline-8-carboxamide]"
> 100,> 1000,"O=C(N[C@@H]1CCCOC1)c1ccc2[nH]c(=O)c3cncn3c2c1 [Compound 13A, (R)-4-Oxo-N-(tetrahydro-2H-pyran-3-yl)-4,5-dihydroimidazo[1,5-a]quinoxaline-8-carboxamide]"
> 100,> 1000,"O=C(N[C@@H]1CCCOC1)c1ccc2c(c1)-n1ccnc1CCO2 [Compound 14A, (R)—N-(Tetrahydro-2H-pyran-3-yl)-4,5-dihydrobenzo[b]imidazo[1,2-d][1,4]oxazepine-9-carboxamide]"
> 100,> 1000,"O=C(N[C@@H]1CCCOC1)c1ccc2c(c1)-n1cncc1CCO2 [Compound 15A, (R)—N-(Tetrahydro-2H-pyran-3-yl)-4,5-dihydrobenzo[b]imidazo[1,5-d][1,4]oxazepine-9-carboxamide]"
> 100,> 1000,"Cn1c(=O)c2cncn2c2cc(C(=O)N[C@@H]3CCCOC3)ccc21 [Compound 16A, (R)-5-Methyl-4-oxo-N-(tetrahydro-2H-pyran-3-yl)-4,5-dihydroimidazo[1,5-a]quinoxaline-8-carboxamide]"
< 1,< 30,"CNC(=O)[C@H]1CC[C@H](NC(=O)c2ccc3c(c2)-c2cncn2CCO3)CC1 [Compound 17A, N-((1r,4r)-4-(Methylcarbamoyl)cyclohexyl)-5,6-dihydrobenzo[f]imidazo[1,5-d][1,4]oxazepine-10-carboxamide]"
< 1,< 30,"CS(=O)(=O)c1cccc(NC(=O)c2ccc3c(c2)-c2cncn2CCO3)c1 [Compound 18A, N-(3-(Methylsulfonyl)phenyl)-5,6-dihydrobenzo[f]imidazo[1,5-d][1,4]oxazepine-10-carboxamide]"
< 1,< 30,"O=C(Nc1ccc2c(c1)CCS2(=O)=O)c1ccc2c(c1)-c1cncn1CCO2 [Compound 19A, N-(1,1-Dioxido-2,3-dihydrobenzo[b]thiophen-5-yl)-5,6-dihydrobenzo[f]imidazo[1,5-d][1,4]oxazepine-10-carboxamide]"
< 1,< 30,"CO[C@H]1CC[C@H](NC(=O)c2ccc3c(c2)-c2cncn2CCO3)CC1 [Compound 20A, N-((1r,4r)-4-Methoxycyclohexyl)-5,6-dihydrobenzo[f]imidazo[1,5-d][1,4]oxazepine-10-carboxamide]"
< 1,< 30,"CS(=O)(=O)c1cc(NC(=O)c2ccc3c(c2)-c2cncn2CCO3)ccc1F [Compound 21A, N-(4-Fluoro-3-(methylsulfonyl)phenyl)-5,6-dihydrobenzo[f]imidazo[1,5-d][1,4]oxazepine-10-carboxamide]"
1 to 10,< 30,"CS(=O)(=O)c1cncc(NC(=O)c2ccc3c(c2)-c2cncn2CCO3)c1 [Compound 22A, N-(5-(Methylsulfonyl)pyridin-3-yl)-5,6-dihydrobenzo[f]imidazo[1,5-d][1,4]oxazepine-10-carboxamide]"
10 to 100,30 to 100,"CC(C)(C)OC(=O)N1Cc2ccc(NC(=O)c3ccc4c(c3)-c3cncn3CCO4)cc2C1 [Compound 23A, tert-Butyl 5-(5,6-dihydrobenzo[f]imidazo[1,5-d][1,4]oxazepine-10-carboxamido)isoindoline-2-carboxylate]"
10 to 100,30 to 100,"O=C(Nc1ccc2c(c1)CNC2)c1ccc2c(c1)-c1cncn1CCO2 [Compound 24A, N-(Isoindolin-5-yl)-5,6-dihydrobenzo[f]imidazo[1,5-d][1,4]oxazepine-10-carboxamide hydrochloride]"
1 to 10,< 30,"CS(=O)(=O)N1Cc2ccc(NC(=O)c3ccc4c(c3)-c3cncn3CCO4)cc2C1 [Compound 25A, N-(2-(Methylsulfonyl)isoindolin-5-yl)-5,6-dihydrobenzo[f]imidazo[1,5-d][1,4]oxazepine-10-carboxamide]"
10 to 100,100 to 1000,"O=C(N[C@@H]1CCCOC1)c1ccc2c(c1)-c1cncn1CCCO2 [Compound 26A, (R)—N-(Tetrahydro-2H-pyran-3-yl)-6,7-dihydro-5H-benzo[b]imidazo[5,1-d][1,5]oxazocine-11-carboxamide]"
1 to 10,100 to 1000,"COCCNc1nc2ccc(C(=O)N[C@@H]3CCCOC3)cc2n2cncc12 [Compound 27A, (R)-4-((2-Methoxyethyl)amino)-N-(tetrahydro-2H-pyran-3-yl)imidazo[1,5-a]quinoxaline-8-carboxamide]"
1 to 10,< 30,"CNc1nc2ccc(C(=O)N[C@@H]3CCCOC3)cc2n2cncc12 [Compound 28A, (R)-4-(Methylamino)-N-(tetrahydro-2H-pyran-3-yl)imidazo[1,5-a]quinoxaline-8-carboxamide]"
1 to 10,< 30,"COCCS(=O)(=O)N[C@H]1CC[C@H](NC(=O)c2ccc3c(c2)-c2cncn2CCO3)CC1 [Compound 29A, N-((1r,4r)-4-((2-Methoxyethyl)sulfonamido)cyclohexyl)-5,6-dihydrobenzo[f]imidazo[1,5-d][1,4]oxazepine-10-carboxamide]"
1 to 10,< 30,"O=C(Nc1ccc2c(n1)OCCO2)c1ccc2c(c1)-c1cncn1CCO2 [Compound 30A, N-(2,3-Dihydro-[1,4]dioxino[2,3-b]pyridin-6-yl)-5,6-dihydrobenzo[f]imidazo[1,5-d][1,4]oxazepine-10-carboxamide]"
